From patent US10004701B2, “Methods and compositions for treating infection” (UNIVERSITY OF ROCHESTER, priority 2012, dated 2018)
Counter-ions that a name gives are not always drawn. Like-named read-outs stand apart in the source and are kept apart here.

Tests used:
Assay in all cases: AK assay 384-well format, Prestwick library screening
E. coli = type: cell-based, Escherichia coli; details: 50 μM final drug concentration; for fold induction at 50 µM: Escherichia coli, 3 h
K. pneumoniae = type: cell-based, Klebsiella pneumoniae; details: 50 μM final drug concentration; for fold induction at 50 µM: Klebsiella pneumoniae, 3 h
[1] = test system: A. baumannii strain 98-37-09; type: cell-based, Acinetobacter baumannii; details: 50 μM final drug concentration; for fold induction at 50 µM: Acinetobacter baumannii, 983709, 3 h
P. aeruginosa = type: cell-based, Pseudomonas aeruginosa; details: 50 μM final drug concentration; for fold induction at 50 µM: Pseudomonas aeruginosa, 3 h
E. faecium = type: cell-based, Enterococcus faecium; details: 50 μM final drug concentration; for fold induction at 50 µM: Enterococcus faecium, 3 h
[2] = test system: S. aureus strain USA300-0114; type: cell-based, Staphylococcus aureus; details: 50 μM final drug concentration; for fold induction at 50 µM: Staphylococcus aureus, USA300, 3 h
E. cloacae = type: cell-based, Enterobacter cloacae; details: 50 μM final drug concentration; for fold induction at 50 µM: Enterobacter cloacae, 3 h
[3] = 384-well format, cutoff for positive-scoring molecules 3-fold increase, read-out: AK-based Prestwick Library Screening Results, K. pneumoniae (increase in extracellular AK activity)
[4] = 384-well format, cutoff for positive-scoring molecules 3-fold increase, read-out: AK-based Prestwick Library Screening Results, A. baumannii (increase in extracellular AK activity)
[5] = 384-well format, cutoff for positive-scoring molecules 3-fold increase, read-out: AK-based Prestwick Library Screening Results, P. aeruginosa (increase in extracellular AK activity)
[6] = 384-well format, cutoff for positive-scoring molecules 3-fold increase, read-out: AK-based Prestwick Library Screening Results, E. faecium (increase in extracellular AK activity)
[7] = 384-well format, cutoff for positive-scoring molecules 3-fold increase, read-out: AK-based Prestwick Library Screening Results, S. aureus (increase in extracellular AK activity)
[8] = 384-well format, cutoff for positive-scoring molecules 3-fold increase, read-out: AK-based Prestwick Library Screening Results, E. cloacae (increase in extracellular AK activity)
[9] = 384-well format, cutoff for positive-scoring molecules 3-fold increase, read-out: AK-based Prestwick Library Screening Results, E. coli (increase in extracellular AK activity)
[10] = planktonic E. coli, 384-well, cutoff for positive-scoring molecules 3-fold increase, read-out: AK-based Prestwick Library Screening Results: E. coli (increase in extracellular AK activity)
[11] = planktonic K. pneumoniae, 384-well, cutoff for positive-scoring molecules 3-fold increase, read-out: AK-based Prestwick Library Screening Results: K. pneumoniae (increase in extracellular AK activity)
[12] = planktonic A. baumannii, 384-well, cutoff for positive-scoring molecules 3-fold increase, read-out: AK-based Prestwick Library Screening Results: A. baumannii (increase in extracellular AK activity)
[13] = planktonic P. aeruginosa, 384-well, cutoff for positive-scoring molecules 3-fold increase, read-out: AK-based Prestwick Library Screening Results: P. aeruginosa (increase in extracellular AK activity)
[14] = planktonic E. faecium, 384-well, cutoff for positive-scoring molecules 3-fold increase, read-out: AK-based Prestwick Library Screening Results: E. faecium (increase in extracellular AK activity)
[15] = planktonic S. aureus, 384-well, cutoff for positive-scoring molecules 3-fold increase, read-out: AK-based Prestwick Library Screening Results: S. aureus (increase in extracellular AK activity)
[16] = planktonic E. cloacae, 384-well, cutoff for positive-scoring molecules 3-fold increase, read-out: AK-based Prestwick Library Screening Results: E. cloacae (increase in extracellular AK activity)
[17] = cutoff for positive-scoring molecules 3-fold increase

CC(=O)O[C@]1(C(C)=O)CC[C@H]2[C@@H]3C=C(C)C4=CC(=O)CC[C@@H]4[C@H]3CC[C@@]21C [Nomegestrol acetate]
fold induction at 50 µM (E. coli; planktonic E. coli, positive cutoff 3-fold increase, read-out: AK-based Prestwick library screening result, E. coli (fold increase in extracellular AK activity)): 1.1 | fold induction at 50 µM (K. pneumoniae; planktonic K. pneumoniae, positive cutoff 3-fold increase, read-out: AK-based Prestwick library screening result, K. pneumoniae (fold increase in extracellular AK activity)): 1.1 | fold induction at 50 µM ([1]; planktonic A. baumannii, positive cutoff 3-fold increase, read-out: AK-based Prestwick library screening result, A. baumannii (fold increase in extracellular AK activity)): 1.1 | fold induction at 50 µM (P. aeruginosa; planktonic P. aeruginosa, positive cutoff 3-fold increase, read-out: AK-based Prestwick library screening result, P. aeruginosa (fold increase in extracellular AK activity)): 1.1 | fold induction at 50 µM (E. faecium; planktonic E. faecium, positive cutoff 3-fold increase, read-out: AK-based Prestwick library screening result, E. faecium (fold increase in extracellular AK activity)): 1.2 | fold induction at 50 µM ([2]; planktonic S. aureus, positive cutoff 3-fold increase, read-out: AK-based Prestwick library screening result, S. aureus (fold increase in extracellular AK activity)): 1 | fold induction at 50 µM (E. cloacae; planktonic E. cloacae, positive cutoff 3-fold increase, read-out: AK-based Prestwick library screening result, E. cloacae (fold increase in extracellular AK activity)): 1.5

CN1Cc2c(N)cccc2C(c2ccccc2)C1 (stereo not drawn) [Nomifensine maleate]
fold induction at 50 µM (E. coli; 384-well format, […], read-out: AK-based Prestwick Library Screening Results, E. coli (increase in extracellular AK activity)): 0.9 | fold induction at 50 µM (K. pneumoniae; [3]): 0.8 | fold induction at 50 µM [1, 4]: 0.8 | fold induction at 50 µM (P. aeruginosa; [5]): 0.8 | fold induction at 50 µM (E. faecium; [6]): 0.9 | fold induction at 50 µM [2, 7]: 0.7 | fold induction at 50 µM (E. cloacae; [8]): 1

CNCCC=C1c2ccccc2C=Cc2ccccc21 [Norcyclobenzaprine]
AK-based Prestwick Library Screening Results, E. coli (increase in extracellular AK activity) (E. coli; planktonic E. coli, cutoff for positive-scoring molecules 3-fold increase): 6.3 | AK-based Prestwick Library Screening Results, K. pneumoniae (increase in extracellular AK activity) (K. pneumoniae; planktonic K. pneumoniae, cutoff for positive-scoring molecules 3-fold increase): 0.9 | AK-based Prestwick Library Screening Results, A. baumannii (increase in extracellular AK activity) ([1]; planktonic A. baumannii, cutoff for positive-scoring molecules 3-fold increase): 1.1 | AK-based Prestwick Library Screening Results, P. aeruginosa (increase in extracellular AK activity) (P. aeruginosa; planktonic P. aeruginosa, cutoff for positive-scoring molecules 3-fold increase): 1.0 | AK-based Prestwick Library Screening Results, E. faecium (increase in extracellular AK activity) (E. faecium; planktonic E. faecium, cutoff for positive-scoring molecules 3-fold increase): 0.8 | AK-based Prestwick Library Screening Results, S. aureus (increase in extracellular AK activity) ([2]; planktonic S. aureus, cutoff for positive-scoring molecules 3-fold increase): 0.6 | AK-based Prestwick Library Screening Results, E. cloacae (increase in extracellular AK activity) (E. cloacae; planktonic E. cloacae, cutoff for positive-scoring molecules 3-fold increase): 1.3

C#C[C@]1(O)CC[C@H]2[C@@H]3CCC4=CC(=O)CC[C@@H]4[C@H]3CC[C@@]21C [Norethindrone]
fold induction at 50 µM (E. coli; [9]): 0.7 | fold induction at 50 µM (K. pneumoniae; [3]): 0.7 | fold induction at 50 µM [1, 4]: 0.7 | fold induction at 50 µM (P. aeruginosa; [5]): 0.8 | fold induction at 50 µM (E. faecium; [6]): 1 | fold induction at 50 µM [2, 7]: 0.8 | fold induction at 50 µM (E. cloacae; [8]): 0.9

C#C[C@]1(O)CC[C@H]2[C@@H]3CCC4=C(CCC(=O)C4)[C@H]3CC[C@@]21C [Norethynodrel]
fold induction at 50 µM (E. coli; [9]): 0.9 | fold induction at 50 µM (K. pneumoniae; [3]): 0.7 | fold induction at 50 µM [1, 4]: 0.7 | fold induction at 50 µM (P. aeruginosa; [5]): 0.8 | fold induction at 50 µM (E. faecium; [6]): 0.9 | fold induction at 50 µM [2, 7]: 0.7 | fold induction at 50 µM (E. cloacae; [8]): 1

CCn1cc(C(=O)O)c(=O)c2cc(F)c(N3CCNCC3)cc21 [Norfloxacin]
fold induction at 50 µM (E. coli; [10]): 33.1 | fold induction at 50 µM (K. pneumoniae; [11]): 0.8 | fold induction at 50 µM [1, 12]: 3.1 | fold induction at 50 µM (P. aeruginosa; [13]): 31.3 | fold induction at 50 µM (E. faecium; [14]): 1.5 | fold induction at 50 µM [2, 15]: 1.8 | fold induction at 50 µM (E. cloacae; [16]): 3.1

C#C[C@]1(O)CC[C@H]2[C@@H]3CCC4=CC(=O)CC[C@@H]4[C@H]3CC[C@@]21CC [Norgestrel-(−)-D]
AK-based Prestwick Library Screening Results, E. coli (fold increase in extracellular AK activity) (E. coli; [17]): 1.0 | AK-based Prestwick Library Screening Results, K. pneumoniae (fold increase in extracellular AK activity) (K. pneumoniae; [17]): 1.1 | AK-based Prestwick Library Screening Results, A. baumannii (fold increase in extracellular AK activity) [1, 17]: 1.1 | AK-based Prestwick Library Screening Results, P. aeruginosa (fold increase in extracellular AK activity) (P. aeruginosa; [17]): 1.1 | AK-based Prestwick Library Screening Results, E. faecium (fold increase in extracellular AK activity) (E. faecium; [17]): 1.0 | AK-based Prestwick Library Screening Results, S. aureus (fold increase in extracellular AK activity) [2, 17]: 1.1 | AK-based Prestwick Library Screening Results, E. cloacae (fold increase in extracellular AK activity) (E. cloacae; [17]): 1.7

CNCCC=C1c2ccccc2CCc2ccccc21 [Nortriptyline hydrochloride]
fold induction at 50 µM (E. coli; [9]): 0.9 | fold induction at 50 µM (K. pneumoniae; [3]): 0.7 | fold induction at 50 µM [1, 4]: 0.9 | fold induction at 50 µM (P. aeruginosa; [5]): 0.8 | fold induction at 50 µM (E. faecium; [6]): 0.9 | fold induction at 50 µM [2, 7]: 1 | fold induction at 50 µM (E. cloacae; [8]): 0.9

COc1ccc2c(c1OC)C(=O)O[C@@H]2[C@H]1c2c(cc3c(c2OC)OCO3)CCN1C [Noscapine]
fold induction at 50 µM (E. coli; [10]): 0.6 | fold induction at 50 µM (K. pneumoniae; [11]): 0.5 | fold induction at 50 µM [1, 12]: 0.6 | fold induction at 50 µM (P. aeruginosa; [13]): 0.5 | fold induction at 50 µM (E. faecium; [14]): 0.9 | fold induction at 50 µM [2, 15]: 0.5 | fold induction at 50 µM (E. cloacae; [16]): 0.6

CO[C@@H]1[C@@H](OC(N)=O)[C@@H](O)[C@H](Oc2ccc3c(O)c(NC(=O)c4ccc(O)c(CC=C(C)C)c4)c(=O)oc3c2C)OC1(C)C [Novobiocin sodium salt]
fold induction at 50 µM (E. coli; planktonic, cutoff for positive-scoring molecules 3-fold increase, read-out: AK-based Prestwick Library Screening Results, E. coli (fold increase in extracellular AK activity)): 3.2 | fold induction at 50 µM (K. pneumoniae; planktonic, cutoff for positive-scoring molecules 3-fold increase, read-out: AK-based Prestwick Library Screening Results, K. pneumoniae (fold increase in extracellular AK activity)): 0.7 | fold induction at 50 µM ([1]; planktonic, cutoff for positive-scoring molecules 3-fold increase, read-out: AK-based Prestwick Library Screening Results, A. baumannii (fold increase in extracellular AK activity)): 1.1 | fold induction at 50 µM (P. aeruginosa; planktonic, cutoff for positive-scoring molecules 3-fold increase, read-out: AK-based Prestwick Library Screening Results, P. aeruginosa (fold increase in extracellular AK activity)): 1 | fold induction at 50 µM (E. faecium; planktonic, cutoff for positive-scoring molecules 3-fold increase, read-out: AK-based Prestwick Library Screening Results, E. faecium (fold increase in extracellular AK activity)): 1.5 | fold induction at 50 µM ([2]; planktonic, cutoff for positive-scoring molecules 3-fold increase, read-out: AK-based Prestwick Library Screening Results, S. aureus (fold increase in extracellular AK activity)): 4.5 | fold induction at 50 µM (E. cloacae; planktonic, cutoff for positive-scoring molecules 3-fold increase, read-out: AK-based Prestwick Library Screening Results, E. cloacae (fold increase in extracellular AK activity)): 1.6

C[C@@H]1[C@H](O)[C@@H](C)/C=C/C=C/CC/C=C/C=C/C=C/C=C/C(O[C@H]2O[C@H](C)[C@@H](O)[C@H](N)[C@@H]2O)CC2O[C@](O)(CC(O)C(O)CCC(O)CC(O)CC(O)CC(=O)O[C@H]1C)CC(O)C2C(=O)O (stereo partly drawn) [Nystatine]
AK-based Prestwick Library Screening Results, E. coli (increase in extracellular AK activity) (E. coli; planktonic E. coli, […]): 1.0 | AK-based Prestwick Library Screening Results, K. pneumoniae (increase in extracellular AK activity) (K. pneumoniae; planktonic K. pneumoniae, […]): 0.8 | AK-based Prestwick Library Screening Results, A. baumannii (increase in extracellular AK activity) ([1]; planktonic A. baumannii, […]): 0.9 | AK-based Prestwick Library Screening Results, P. aeruginosa (increase in extracellular AK activity) (P. aeruginosa; planktonic P. aeruginosa, […]): 0.8 | AK-based Prestwick Library Screening Results, E. faecium (increase in extracellular AK activity) (E. faecium; planktonic E. faecium, […]): 0.8 | AK-based Prestwick Library Screening Results, S. aureus (increase in extracellular AK activity) ([2]; planktonic S. aureus, […]): 0.7 | AK-based Prestwick Library Screening Results, E. cloacae (increase in extracellular AK activity) (E. cloacae; planktonic E. cloacae, […]): 1.4

CC1COc2c(N3CCN(C)CC3)c(F)cc3c(=O)c(C(=O)O)cn1c23 (stereo not drawn) [Ofloxacin]
fold induction at 50 µM (E. coli; [10]): 15.7 | fold induction at 50 µM (K. pneumoniae; [11]): 1 | fold induction at 50 µM [1, 12]: 3.7 | fold induction at 50 µM (P. aeruginosa; [13]): 20 | fold induction at 50 µM (E. faecium; [14]): 1.4 | fold induction at 50 µM [2, 15]: 2.8 | fold induction at 50 µM (E. cloacae; [16]): 4.1
